We go through 12 compounds from patent US9067888B2, “Inhibitors of protein kinases” (Ingenium Pharmaceuticals GmbH, priority 2010, dated 2015).

For one assay, the target named is CDK9 (Homo sapiens (Human), UniProt P50750). In words: In vitro kinase inhibition, KinaseProfiler service of Millipore, residual activity. Format: biochemical. The following applies: for CDK9 10 nM (RA in %) / remaining activity at 0.01 µM: residual activity at 10 nM compound; for CDK9 100 nM (RA in %) / remaining activity at 0.1 µM: residual activity at 100 nM compound; for remaining activity at 0.01 µM: read-out: CDK9 10 nM (RA in %); for remaining activity at 0.1 µM: read-out: CDK9 100 nM (RA in %). The source says: In vitro kinase assay analysis may be performed using standard techniques described in the art. These techniques are also used by commercial services providers in order to offer in vitro kinase activity assay services, e.g. the assays offered by Millipore Inc. (worldwide website www(dot)millipore.com), ProQinase GmbH (worldwide website www(dot)proqinase.de) and others.
CDK9, sequence (P50750 whole entry): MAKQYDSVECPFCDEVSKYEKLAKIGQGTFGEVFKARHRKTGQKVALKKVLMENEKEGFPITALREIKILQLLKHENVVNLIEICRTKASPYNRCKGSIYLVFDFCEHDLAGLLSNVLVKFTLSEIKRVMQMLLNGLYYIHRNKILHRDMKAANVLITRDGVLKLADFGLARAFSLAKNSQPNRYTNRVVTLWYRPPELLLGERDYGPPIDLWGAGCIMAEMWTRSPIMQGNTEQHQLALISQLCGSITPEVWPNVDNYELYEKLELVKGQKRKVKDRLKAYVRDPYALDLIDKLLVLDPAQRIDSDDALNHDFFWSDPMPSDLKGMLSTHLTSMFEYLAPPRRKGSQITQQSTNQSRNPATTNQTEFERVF
CDK9, sequence (O60563 whole entry partner): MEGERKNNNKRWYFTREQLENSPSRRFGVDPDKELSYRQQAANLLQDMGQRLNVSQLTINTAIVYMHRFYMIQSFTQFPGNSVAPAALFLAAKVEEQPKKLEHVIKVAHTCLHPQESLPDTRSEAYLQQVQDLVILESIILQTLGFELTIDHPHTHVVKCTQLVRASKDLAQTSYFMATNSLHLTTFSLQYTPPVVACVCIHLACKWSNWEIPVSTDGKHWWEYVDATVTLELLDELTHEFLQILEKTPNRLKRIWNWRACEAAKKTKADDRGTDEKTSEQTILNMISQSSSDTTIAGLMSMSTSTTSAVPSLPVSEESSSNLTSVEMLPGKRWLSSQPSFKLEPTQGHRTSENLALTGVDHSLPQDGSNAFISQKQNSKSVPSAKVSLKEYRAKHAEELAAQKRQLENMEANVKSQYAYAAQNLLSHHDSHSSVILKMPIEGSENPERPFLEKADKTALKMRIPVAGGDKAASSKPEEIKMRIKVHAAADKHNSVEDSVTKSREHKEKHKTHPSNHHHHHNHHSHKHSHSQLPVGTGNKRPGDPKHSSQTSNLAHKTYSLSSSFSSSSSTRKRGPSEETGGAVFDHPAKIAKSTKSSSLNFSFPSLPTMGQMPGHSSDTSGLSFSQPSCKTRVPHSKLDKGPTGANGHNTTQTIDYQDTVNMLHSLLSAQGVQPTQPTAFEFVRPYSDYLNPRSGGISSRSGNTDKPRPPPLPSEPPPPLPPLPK
In vitro kinase inhibition results shown in columns 7 to 9 in Table 1 were obtained by employing the KinaseProfiler™ service of Millipore and used to select compounds displaying specificity for CDK9. Specifically, it was intended to distinguish the CDK9-specific compounds from other compounds having significant inhibitory potency also with regard to other CDKs.

For assay [1], the system named is TNF-alpha inducible reporter gene. The assay is described as follows: Inhibition of TNF-alpha-induced reporter gene expression (luciferase) in HeLa-derived cell line. Format: cell-based, human. The note with it: Homo sapiens, 6 h, remaining luciferase activity in presence of 3 μM of compound as ratio of DMSO-treated cells, TNF-alpha 50 ng/ml, read-out: Efficacy (ratio to DMSO) TNF-alpha induced response. The text has this: TNF-alpha responsive cell lines like the human HeLa cell line can be used to study cellular responses to TNF-alpha, e.g. transcriptional regulation of a transfected TNF-alpha responsive reporter gene, and effects of kinase inhibitors on this response.
In order to analyse compound effects on TNF-alpha mediated transcriptional response, a HeLa-derived cell line stably transfected with a TNF-alpha inducible reporter gene was used (Panomics Catalog No. RC0013). The cell line was obtained by co-transfection of a luciferase reporter gene (Panomics P/N LR0051) and pHyg into human cervical epithelial HeLa cells, followed by hygromycin selection. TNFα-induced luciferase activity was used to select clones from the hygromycin-resistant cells. The cell line was maintained and stimulated according to the manufacturer's instructions. Briefly, cells were seeded at 5×10^5/well in 1 ml of growth medium in a 12-well plate and incubated in a humidified incubator at 37° C. and 5% CO2 for 24 hours. Medium was replaced with 1 ml of serum free medium and compounds were added up to concentrations of […]. After 1 hour of incubation, TNF-alpha was added to achieve a final concentration of 50 ng/ml. The culture dish was further incubated in a humidified incubator at 37° C. and 5% CO2 for 6 hours, medium was removed and 100 μL of lysis buffer were added to each well and the assay for luciferase activity was performed according to assay manufacturer's (Promega P/N E1500) recommendations. For more information about this cell line, go to worldwide website www(dot)panomics.com.
Compound effects on TNF-alpha-induced reporter gene expression is shown in column 6 in Table 1 given below. Indicated is the remaining luciferase activity after incubation in presence of 3 μM of compound as a ratio of the activity of DMSO-treated cells without compound. Specifically, it was intended to distinguish cell permeable compounds from other compounds having significant inhibitory potency with regard to other CDKs, but fail to penetrate cells or are unstable under the conditions of the experiment.

For the compound `COc1cc(F)ccc1-c1ccnc(NC(=O)[C@H]2CCC[C@H](NC(C)=O)C2)c1` (relative stereo) [Example 25, trans-3-Acetamido-N-(4-(4-fluoro-2-methoxyphenyl)-pyridin-2-yl)cyclohexanecarboxamide], on CDK9, the “CDK9 10 nM (RA in %)” value is 99% and the “CDK9 100 nM (RA in %)” value is given as 78%.

On to `COc1cc(F)ccc1-c1ccnc(NC(=O)[C@H]2CCC[C@H](NC(C)=O)C2)c1` (relative stereo) [Example 26, trans-3-Acetamido-N-(4-(4-fluoro-2-methoxyphenyl)-pyridin-2-yl)cyclohexanecarboxamide], for which, on CDK9, the “CDK9 10 nM (RA in %)” value is 33% and the “CDK9 100 nM (RA in %)” value is on record as 5%.

`COc1cc(F)ccc1-c1ccnc(NC(=O)[C@@H](C)c2cccnc2)c1` (stereo in doubt) [Example 12, N-(4-(4-Fluoro-2-methoxyphenyl)pyridin-2-yl)-2-(pyridin-3-yl)propanamide]: the activity at 3 µM in assay [1] came to 83%. Besides, at CDK9, the remaining activity at 0.01 µM was determined as 94% and the remaining activity at 0.1 µM came out at 96%.

Turning to `COc1cc(F)ccc1-c1ccnc(NC(=O)C2CCCCC2)c1` [Example 1, N-(4-(4-Fluoro-2-methoxyphenyl)pyridin-2-yl)cyclohexanecarboxamide], the activity at 3 µM in assay [1] turned out to be 23%. For the same compound, at CDK9, the remaining activity at 0.01 µM turned out to be 88% and the remaining activity at 0.1 µM turned out to be 23%.

As to `COc1cc(F)ccc1-c1ccnc(NC(=O)CC2CCCCC2)c1` [Example 2, 2-Cyclohexyl-N-(4-(4-fluoro-2-methoxyphenyl)pyridin-2-yl)acetamide], the activity at 3 µM in assay [1] turned out to be 49%. Moreover, at CDK9, the remaining activity at 0.01 µM came out at 78% and the remaining activity at 0.1 µM worked out at 33%.

Consider `COc1cc(F)ccc1-c1ccnc(NC(=O)C2CCNCC2)c1` [Example 3, N-(4-(4-Fluoro-2-methoxyphenyl)pyridin-2-yl)piperidine-4-carboxamide], for which, in assay [1], the activity at 3 µM stood at 5%. Moreover, at CDK9, the remaining activity at 0.01 µM was determined as 86% and the remaining activity at 0.1 µM is 9%.

With `COc1cc(F)ccc1-c1ccnc(NC(=O)[C@H]2CC[C@@H](N)CC2)c1` [Example 4, cis-4-Amino-N-(4-(4-fluoro-2-methoxyphenyl)pyridin-2-yl)cyclohexane-carboxamide], the activity at 3 µM in assay [1] was found to be 5%. For the same compound, on CDK9, the remaining activity at 0.01 µM stood at 59% and the remaining activity at 0.1 µM was 4%.

With `COc1cc(F)ccc1-c1ccnc(NC(=O)C2CNC(=O)C2)c1` (stereo not shown) [Example 5, N-(4-(4-Fluoro-2-methoxyphenyl)pyridin-2-yl)-5-oxopyrrolidine-3-carboxamide], in assay [1], the activity at 3 µM worked out at 4%. Further, on CDK9, the remaining activity at 0.01 µM was found to be 46% and the remaining activity at 0.1 µM is 5%.

Take `COc1ccc(CC(=O)Nc2cc(-c3ccc(F)cc3OC)ccn2)cc1` [Example 6, N-(4-(4-Fluoro-2-methoxyphenyl)pyridin-2-yl)-2-(4-methoxyphenyl)-acetamide]: the activity at 3 µM in assay [1] came out at 7%. On CDK9, the remaining activity at 0.01 µM is 68% and the remaining activity at 0.1 µM came to 16%.

As for `COc1cc(F)ccc1-c1ccnc(NC(=O)Cc2ccccc2)c1` [Example 7, N-(4-(4-Fluoro-2-methoxyphenyl)pyridin-2-yl)-2-phenylacetamide], the activity at 3 µM in assay [1] was determined as 8%. Also, at CDK9, the remaining activity at 0.01 µM was determined as 78% and the remaining activity at 0.1 µM was 17%.

As for `COc1cc(F)ccc1-c1ccnc(NC(=O)Cc2ccncc2)c1` [Example 8, N-(4-(4-Fluoro-2-methoxyphenyl)pyridin-2-yl)-2-(pyridin-4-yl)acetamide], the activity at 3 µM in assay [1] is 4%. On CDK9, the remaining activity at 0.01 µM was found to be 93% and the remaining activity at 0.1 µM was determined as 7%.

Regarding `COc1cc(F)ccc1-c1ccnc(NC(=O)Cc2cccs2)c1` [Example 9, N-(4-(4-Fluoro-2-methoxyphenyl)pyridin-2-yl)-2-(thiophen-2-yl)acetamide], the activity at 3 µM in assay [1] was determined as 4%. Moreover, at CDK9, the remaining activity at 0.01 µM was 76% and the remaining activity at 0.1 µM worked out at 16%.
